This note sets out measurements from ChEMBL document CHEMBL3608226, “Synthesis and biological evaluation of phaitanthrin congeners as anti-mycobacterial agents” (2015).

This test deals with Mycobacterium tuberculosis. The experiment in a line: Antimycobacterial activity against multi-drug resistant Mycobacterium tuberculosis. It is filed as functional.

Converted amounts (≈) assume the structure as drawn.

As to `O=C1c2ccccc2-n2c1nc1ccccc1c2=O` [TRYPTANTHRIN], it took 0.5 µg/mL (≈ 2.01 µM) to inhibit growth (MIC).

Turning to `NNC(=O)c1ccncc1` [ISONIAZID], the MIC (as a rule, the lowest concentration found to suppress growth) turned out to be 4 µg/mL (≈ 29.2 µM).
